# What was measured:
# Assay type in all cases: cell-based, human
# [1] = system: RIF1-BRCA1 proximity in RPE-1 cells; assay: RIF1-BRCA1 proximity ligation assay, RPE-1 cells
# Method: Proximity ligation assays were performed using the Duolink In Situ PLA Fluorescence Protocol (Sigma-Aldrich, DUO92101) following the manufacturer’s instruction. Cells were grown on glass coverslips and treated as indicated for specific experiments. Cells were then permeabilized with 0.5% TritonX-100 in PBS for 10 min on ice, and fixed with 3% formaldehyde, 2% sucrose in PBS for 10 min at room temperature (RT). After fixation, coverslips were blocked in 3% BSA in PBS for 1 h at RT and incubated with primary antibodies (anti-RIF1, Bethel laboratories A300-568A, 1:1000 dilution; anti-BRCA1, Santa Cruz Biotechnologies, sc-6954, 1:200 dilution), for 1 h at RT in a humidity chamber. Primary antibodies were then washed off with PLA washing buffer A supplied in the Duolink In Situ PLA kit. Coverslips were next incubated sequentially with PLA Probes (1 h at 37 °C), ligation solution (30 min at 37 °C) and amplification solution (100 min at 37 °C), with washes by washing buffer A in between each step. At the end of incubation, coverslips were washed with washing buffer B supplied in the Duolink In Situ PLA kit. Coverslips were then mounted on glass slides with PLA Mounting medium with DAPI. Images were captured by fluorescence microscopy (Zeiss Axio Imager). PLA foci number in each nucleus were analysed by CellProfiler Software[74] with a custom-made pipeline.
# For EdU labelling combined with proximity ligation assay, cells were labelled with 10 µM EdU for 15 min, washed free of EdU and next incubated with medium containing 4 mM HU medium for 4 h. Cells were then permeabilized, fixed and subjected to RIF1-BRCA1 PLA procedures. After all PLA steps, EdU detection was performed following manufacturer’s instructions in the Click-iT EdU Imaging Kit (Invitrogen, C10640).
# (§1) For proximity ligation assays and immunofluorescence signal intensity measurements, when comparing between two samples, statistical significance of differences was calculated by Mann-Whitney test for non-parametric distributions using GraphPad Prism software (v.9). When comparing among three or more samples, p values were calculated by Kruskal-Wallis test for non-parametric distributions with Dunn’s multiple comparisons using GraphPad Prism software (v.9). For RIF1 foci formation analysis (Fig. 6B), p values were calculated by two-tailed Student’s t test. For nuclear BRCA1 intensity fold change analyses (Fig. 6C, D), p values were calculated by two-tailed one-sample t test using GraphPad Prism software (v.9). For RAD51 foci formation analyses (Fig. 7B, E and Supplementary Fig. 7B), p values were calculated by chi-square test. For HR Reporter assay analysis (Fig. 7G and Supplementary Fig. 7L), p values were calculated by two-tailed paired Student’s t test. For micronuclei frequency analysis (Fig. 7H), p values were calculated by one-tailed paired Student’s t test. All Student’s t tests were performed with Excel T.TEST function. Chi-square tests were performed with the online Chi-square test calculator at https://www.socscistatistics.com/tests/chisquare2/default2.aspx. Sample number n for all box-and-whisker plots and dot plots are listed in Supplementary Data 1.
# ssDNA = assay: native IdU immunofluorescence (ssDNA), RPE-1 cells; details: HU 4 mM 24 h
# Method: For detection of iododeoxyuridine (IdU) by immunofluorescence, cells were grown in the presence of 10 µM IdU for 72 h (with Morpholinos added at 24 h and HU added at 48 h). Cells were then permeabilized with 0.5% TritonX-100 in PBS for 7 min on ice, fixed with 4% w/v formaldehyde solution for 15 min at RT, and treated again with 0.5% TritonX-100 in PBS for 10 min on ice. Coverslips were immunostained as described above.
# [2] = system: GFP-RIF1-L / GFP-RIF1-L-pp1bs foci; assay: GFP-RIF1 foci formation, HeLa cells; details: HU 4 mM 24 h
# Method: (§2) Cells were grown on glass coverslips and treated as desired. Cells were then permeabilized with 0.5% TritonX-100 in PBS for 7 min on ice, and fixed with 4% w/v formaldehyde solution (Sigma HT5012) for 10 min at room temperature (RT). After fixation, coverslips were blocked with 3% BSA in PBS (RT, 1 h), incubated with primary antibodies (RT, 2 h), washed with PBS three times and incubated with secondary antibodies (RT, 1 h). Primary antibodies used for immunofluorescence include anti-γH2A.X (20E3) (Cell Signalling Technology, 9718. 1:500); anti-RPA32/RPA2 (9H8) (Abcam, ab2175. 1:200); anti-RAD51 (H92) (Santa Cruz Biotechnology, sc-8349. 1:100); anti-BrdU (B44) (BD Biosciences, 347580. 1:100); Coverslips were then mounted on glass slides with mounting medium with DAPI. Images were captured by either standard (Zeiss Axio Imager) or confocal (Zeiss LSM-880) microscopy. Fluorescence signal intensities within each nucleus were analysed by CellProfiler software with custom-made pipelines. Co-localisation analyses were performed with custom-made CellProfiler pipelines. Briefly, nuclei were identified and used to create masks. […]
# micronuclei = micronuclei frequency, HeLa cells; details: HeLa RIF1-L vs RIF1-S or RIF1-L-APKF; HU 4 mM 24 h
# Method: as §1
# RPA = assay: chromatin-bound RPA immunofluorescence, RPE-1 cells; details: HU 4 mM 24 h
# Method: as §2
# [3] = Fig S4F (repeat of 4E), 0h post-HU
# [4] = Fig S4F (repeat of 4E), 4h post-HU
# [5] = Fig S4F (repeat of 4E), 8h post-HU
smiles,measurement,setting,value
"NC(=O)NO [HU, hydroxyurea]",RIF1-BRCA1 proximity signal after HU removal,[1]; 4 h after HU removal,retained
same,RIF1-BRCA1 proximity signal after HU removal,[1]; 8 h post-release,declined to baseline level
same,"RIF1-BRCA1 PLA foci per nucleus, mean","[1]; Fig 3B, HU 4 mM 3 h",1.331
same,"RIF1-BRCA1 PLA foci per nucleus, median","[1]; Fig 3B, HU 4 mM 3 h",1
same,"RIF1-BRCA1 PLA foci per nucleus, mean","[1]; Fig 3B, HU 24 h",3.899
same,"RIF1-BRCA1 PLA foci per nucleus, median","[1]; Fig 3B, HU 24 h",3
same,"RIF1-BRCA1 PLA foci per nucleus, mean","[1]; Fig 3C, HU 4 mM 24 h",2.024
same,"RIF1-BRCA1 PLA foci per nucleus, median","[1]; Fig 3C, HU 4 mM 24 h",1
same,"RIF1-BRCA1 PLA foci per nucleus, mean","[1]; Fig 4E, 0h post-HU",1.913
same,"RIF1-BRCA1 PLA foci per nucleus, median","[1]; Fig 4E, 0h post-HU","1, 1, 1, 1"
same,"RIF1-BRCA1 PLA foci per nucleus, mean","[1]; Fig 4E, 4h post-HU",1.712
same,"RIF1-BRCA1 PLA foci per nucleus, median","[1]; Fig 4E, 4h post-HU","1, 1, 1, 1"
same,"RIF1-BRCA1 PLA foci per nucleus, mean","[1]; Fig 4E, 8h post-HU",0.946
same,"RIF1-BRCA1 PLA foci per nucleus, median","[1]; Fig 4E, 8h post-HU","1, 1, 1, 1"
same,"RIF1-BRCA1 PLA foci per nucleus, mean","[1]; Fig 4F, HU 4 mM 24 h",7.107
same,"RIF1-BRCA1 PLA foci per nucleus, median","[1]; Fig 4F, HU 4 mM 24 h",5
same,"RIF1-BRCA1 PLA foci per nucleus, mean",[1]; [3],0.786
same,"RIF1-BRCA1 PLA foci per nucleus, median",[1]; [3],"0, 0, 0, 0"
same,"RIF1-BRCA1 PLA foci per nucleus, mean",[1]; [4],0.617
same,"RIF1-BRCA1 PLA foci per nucleus, median",[1]; [4],"0, 0, 0, 0"
same,"RIF1-BRCA1 PLA foci per nucleus, mean",[1]; [5],0.355
same,"RIF1-BRCA1 PLA foci per nucleus, median",[1]; [5],"0, 0, 0, 0"
same,"RIF1-BRCA1 PLA foci per nucleus, mean","[1]; Fig S4G (repeat), HU 4mM 24hr",7.828
same,"RIF1-BRCA1 PLA foci per nucleus, median","[1]; Fig S4G (repeat), HU 4mM 24hr",6
same,"RIF1-BRCA1 PLA foci per nucleus, mean","[1]; Fig S4J, HU 4mM 24hr",7.107
same,"RIF1-BRCA1 PLA foci per nucleus, median","[1]; Fig S4J, HU 4mM 24hr","0, 5, 5"
same,RIF1-BRCA1 PLA foci,[1]; HU 3 h,observable
same,RIF1-BRCA1 PLA foci,[1]; HU 24 h,significantly increased
same,native IdU staining,ssDNA,both increased upon HU treatment
same,HU-treated cells with distinct GFP-RIF1-L-pp1bs foci,[2]; HeLa GFP-RIF1-L-pp1bs,~ 70%
same,HU-treated cells with clear GFP-RIF1-L foci,[2]; HeLa GFP-RIF1-L,~ 10%
same,frequency of micronuclei following HU,micronuclei,RIF1-L cells exhibited a lower frequency of micronuclei following HU treatment than RIF1-S or RIF1-L-APKF cells
same,chromatin-bound RPA,RPA,both increased upon HU treatment

# From publication PMC12214830, “The human RIF1-Long isoform interacts with BRCA1 to promote recombinational fork repair under DNA replication stress” (Nature Communications, 2025)
